The results in this text go back to PubChem BioAssay (NCI).

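Where inhibition never reached the appropriate level, the endpoint shown equals the highest concentration tested. Otherwise, values were interpolated linearly from a five-concentration, 48-hour dose response in 96-well plates. GI50 marks 50% less growth. Definition used: TGI = concentration required for complete inhibition of growth.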

Holding throughout (assay): NCI-60 cell line screen, 48 h
Assay [1] deals with NCI-H226 lung.
The test system of assay [2] is LOX IMVI melanoma.
Assay [3] concerns OVCAR-8 ovarian.
Assay [4] has as its system OVCAR-5 ovarian.
Assay [5] concerns TK-10 renal.
In assay [6] the test system is SNB-75 CNS.
The test system of assay [7] is HCT-116 colon.
Assay [8] has as its system EKVX NSCLC.

For `C=CC12CCN(CC1)C(C(O)c1ccnc3ccc(OC)cc13)C2` (stereo unspecified), the GI50 is greater than 100 µM in assay [1]; 15.4 µM in assay [2]; greater than 100 µM in assay [3]; greater than 100 µM in assay [4]; greater than 100 µM in assay [5]; 95.3 µM in assay [6]. Moreover, the GI50 in assay [7] and in assay [8] was greater than 100 µM in each case. Further, the TGI in assay [1], in assay [2], in assay [3], in assay [4], in assay [5] and in assay [6] was greater than 100 µM throughout. Besides, the TGI in assay [7] and in assay [8] was greater than 100 µM in each case.

As for `NC(=O)c1cc(I)ccc1NC(=O)/C=C/c1ccccc1`, the GI50 in assay [1] was 1.96 µM; in assay [2], 3.18 µM; in assay [3], 1.18 µM; in assay [4], 3.17 µM; in assay [5] it was 2.9 µM; in assay [6], 0.316 µM. Moreover, the results for the GI50 in assay [7] and in assay [8] were 0.475 µM and 0.787 µM, respectively. The TGI in assay [1] is 40.3 µM; in assay [2] it was greater than 100 µM; in assay [3], 27.8 µM; in assay [4], greater than 51.8 µM; in assay [5], 44.1 µM; in assay [6], 8.68 µM. Moreover, the TGI was greater than 40.3 µM in assay [7] and greater than 68.8 µM in assay [8].

Turning to `COc1cc2c(cc1OCCCN1CCN(CCCOc3cc4c(cc3OC)C(=O)N3CC(F)(F)C[C@H]3C=N4)CC1)N=C[C@@H]1CC(F)(F)CN1C2=O`, the GI50 is 14 µM in assay [1]; 1.89 µM in assay [2]; 6.3 µM in assay [3]; 3.83 µM in assay [4]; 4.38 µM in assay [5]; 5.52 µM in assay [6]. The GI50 in assay [7] is 3.59 µM; in assay [8] it was 29.1 µM. Besides, the TGI in assay [1] is 39.8 µM; in assay [2], 4.83 µM; in assay [3], 26.7 µM; in assay [4], 11.4 µM; in assay [5], 12.9 µM; in assay [6], 21.1 µM. Besides, the TGI is 22.4 µM in assay [7] and greater than 100 µM in assay [8].

Consider `C[C@H](CCOc1cccc(CC(=O)O)c1)N(Cc1cccc(C(F)(F)F)c1Cl)CC(c1ccccc1)c1ccccc1`, for which the GI50 is 4.49 µM in assay [1]; 5.13 µM in assay [2]; 5.83 µM in assay [3]; 13.4 µM in assay [4]; 10.3 µM in assay [5]; 9.83 µM in assay [6]. Moreover, the GI50 is 3.68 µM in assay [7] and 4.04 µM in assay [8]. In addition, the TGI in assay [1] was determined as 21.5 µM; in assay [2], 18.5 µM; in assay [3], 25.6 µM; in assay [4], 28.1 µM; in assay [5], 23.1 µM; in assay [6], 22 µM. Also, the values for the TGI in assay [7] and in assay [8] were 13.6 µM and 19.1 µM, respectively.

For the compound `COc1c2occc2c(N)c2ccc(=O)oc12`, the TGI in assay [1] is greater than 100 µM; in assay [2] it was greater than 100 µM; in assay [3], greater than 100 µM; in assay [4], greater than 100 µM; in assay [5], greater than 100 µM; in assay [6] it was 69.1 µM. For the same compound, the TGI in assay [7] and in assay [8] was greater than 100 µM throughout.

As to `NC(N)=Nc1nc2ccccc2o1`, the GI50 in assay [1] was greater than 100 µM; in assay [2], greater than 100 µM; in assay [3] it was 49.2 µM; in assay [4], greater than 100 µM; in assay [5] it was greater than 100 µM; in assay [6], greater than 100 µM. The GI50 in assay [7] and in assay [8] was greater than 100 µM throughout. The TGI in assay [1], in assay [2], in assay [3], in assay [4], in assay [5] and in assay [6] was greater than 100 µM throughout. In addition, the TGI in assay [7] and in assay [8] was greater than 100 µM each time.

Regarding `O=C(Nc1ncc(Cc2cccc(C(F)(F)F)c2)s1)c1ccc2c(c1)OCCO2`, the GI50 in assay [1] is 0.827 µM; in assay [2], 0.565 µM; in assay [3], 0.485 µM; in assay [4] it was 0.617 µM; in assay [5], 0.892 µM; in assay [6], 0.185 µM. Moreover, the GI50 in assay [7] is 0.32 µM; in assay [8] it was 0.602 µM. Moreover, the TGI is greater than 100 µM in assay [2]; greater than 100 µM in assay [3]; greater than 100 µM in assay [4]; greater than 39.2 µM in assay [5]; 7.17 µM in assay [6]; greater than 100 µM in assay [7]. In addition, the TGI in assay [8] was greater than 100 µM.

In the case of `O=c1cccc(C#CC#C[C@@H]2O[C@H]2CO)o1`, the GI50 in assay [1] is 0.627 µM; in assay [2], 0.797 µM; in assay [3], 1.03 µM; in assay [4] it was 0.49 µM; in assay [5] it was 1.47 µM; in assay [6] it was 0.434 µM. For the same compound, the GI50 in assay [7] is 0.274 µM; in assay [8], 1.79 µM. For the same compound, the TGI in assay [1] was found to be 1.4 µM; in assay [2], 1.73 µM; in assay [3], 3.12 µM; in assay [4], 1.88 µM; in assay [5], 3.38 µM; in assay [6], 4.07 µM. In addition, the TGI in assay [8] was determined as 3.43 µM.

`Cc1nc2sccn2c1-c1nc2sccn2c1/C=C1/C(=O)Nc2ccccc21`: the GI50 was 9.79 µM in assay [1]; 3.01 µM in assay [2]; 11.4 µM in assay [3]; 12.9 µM in assay [4]; 13.5 µM in assay [5]; 2.38 µM in assay [6]. The GI50 in assay [7] was 3.3 µM; in assay [8] it was 7.45 µM. Moreover, the TGI in assay [1] was greater than 100 µM; in assay [2] it was greater than 100 µM; in assay [3] it was greater than 100 µM; in assay [4], greater than 100 µM; in assay [5], greater than 100 µM; in assay [6], 16 µM. Also, the values for the TGI in assay [7] and in assay [8] were 30 µM and 55.3 µM, respectively.

For `COc1nc(=O)n(C2C=CC(=O)O2)cc1F` (stereo unspecified), the GI50 in assay [1] is 16.9 µM; in assay [2], 10.9 µM; in assay [3], 23.9 µM; in assay [4], 15.2 µM; in assay [5] it was 2.64 µM; in assay [6], 14.3 µM. Further, the GI50 in assay [7] was 2.05 µM; in assay [8], 11.3 µM. Besides, the TGI in assay [1] is 56.6 µM; in assay [2] it was 22.9 µM; in assay [3], greater than 100 µM; in assay [4], 28.6 µM; in assay [5] it was 12.2 µM; in assay [6] it was 43.1 µM. Moreover, the TGI in assay [7] was 4.81 µM; in assay [8], greater than 100 µM.

Turning to `CN(C)CCN1CCC(Cc2ccccc2)CC1`, the GI50 in assay [1], in assay [2], in assay [3], in assay [4], in assay [5] and in assay [6] was greater than 80 µM throughout. In addition, the GI50 in assay [7] and in assay [8] was greater than 80 µM each time. Also, the TGI in assay [1], in assay [2], in assay [3], in assay [4], in assay [5] and in assay [6] was greater than 80 µM in each case. Moreover, the TGI in assay [7] and in assay [8] was greater than 80 µM throughout.

Take `C=C(CN(C)Cc1ccccc1)c1ccc(NC(=O)c2ccc(C(=C)CN(C)Cc3ccccc3)cc2)cc1`: the GI50 is 34.6 µM in assay [1]; 94.8 µM in assay [2]; 45.3 µM in assay [3]; greater than 100 µM in assay [4]; greater than 100 µM in assay [5]; 13.9 µM in assay [6]. The GI50 was 31.7 µM in assay [7] and 73.3 µM in assay [8]. Also, the TGI in assay [1] is greater than 100 µM; in assay [2], greater than 100 µM; in assay [3] it was greater than 100 µM; in assay [4], greater than 100 µM; in assay [5] it was greater than 100 µM; in assay [6], 32.2 µM. The TGI in assay [7] and in assay [8] was greater than 100 µM in each case.

For the compound `CCCCCCCCSC1=C(Cl)C(=O)C(OC)=C(OC)C1=O`, the TGI in assay [1] was found to be 34.6 µM; in assay [2], 24 µM; in assay [3] it was 30.9 µM; in assay [4], 21.1 µM; in assay [5], 28.5 µM; in assay [6], 46.3 µM. Moreover, the TGI worked out at 19.8 µM in assay [7] and 24.9 µM in assay [8].

In the case of `COC(=O)/C=C/c1cc(OC(C)=O)c2c(c1)C(C(=O)OC)C(c1ccc(OC(C)=O)c(OC(C)=O)c1)O2` (stereo unspecified), the GI50 was 3.68 µM in assay [1]; 0.0597 µM in assay [2]; 0.224 µM in assay [3]; 3.42 µM in assay [4]; 8.98 µM in assay [5]; 0.0382 µM in assay [6]. Moreover, the GI50 in assay [7] is 0.0499 µM; in assay [8], 2.28 µM. Also, the TGI in assay [1] was 23.2 µM; in assay [2], greater than 83.3 µM; in assay [3], greater than 72.9 µM; in assay [4] it was greater than 100 µM; in assay [5] it was greater than 93.2 µM; in assay [6], 56.7 µM. Further, the TGI in assay [7] was greater than 51.4 µM; in assay [8], greater than 86 µM.
